Laboratory results as given in paper PMC11952846, “The sterol-regulating human ARV1 binds cholesterol and phospholipids through its conserved ARV1 homology domain” (The Journal of Biological Chemistry, 2025).
Numbering of substitutions follows the chain as printed. Entries after “also recorded” stand apart in the source; their conditions may differ.

Experiments:
[1] = target: T1, GST-ARV1 (full-length ARV1) (Homo sapiens, UniProt Q9H2C2); experiment: Protein-lipid liposome binding assay (ultracentrifugation, Western blot); settings: protein detected in final pellet
T1 construct: Expresses full length ARV1; made in house; host or cells: E. coli BL21 (pGEX-4T1)
T1 sequence (Q9H2C2 1-271): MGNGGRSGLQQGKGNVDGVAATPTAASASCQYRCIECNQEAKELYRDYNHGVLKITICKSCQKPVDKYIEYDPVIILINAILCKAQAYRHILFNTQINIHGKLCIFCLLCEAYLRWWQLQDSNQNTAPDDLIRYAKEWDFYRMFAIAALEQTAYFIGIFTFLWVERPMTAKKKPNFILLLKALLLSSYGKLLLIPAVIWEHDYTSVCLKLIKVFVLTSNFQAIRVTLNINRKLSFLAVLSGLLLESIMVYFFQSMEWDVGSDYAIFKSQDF
Protocol: (§1) Lyophilized lipids were reconstituted in chloroform at 10 mg/ml and stored in glass tubes with Teflon tops at −20 °C until use. One milliliter of 10 mg/ml stock was dried under a stream of nitrogen in a glass tube until a lipid cake/film was formed. The lipid cake was then rehydrated in BLT rehydration buffer (5 mM Tris/HCl, pH 7.4, containing 150 mM NaCl) to a concentration of 1 mg/ml. Lipid suspensions were subjected to three freeze/thaw cycles using a dry ice ethanol/[…] water bath to encapsulate the buffer and improve liposome formation. The suspension and lipid extruder were equilibrated to temperature for 10 min and liposomes were extruded using […] polycarbonate membranes (Avestin). Liposomes were made by mixing stock lipid PL (1 mg/ml) with PC (10 mg/ml).
Cholesterol composition liposomes were rehydrated with cholesterol rehydration buffer (10 mM Hepes, pH 7.4, containing 150 mM KCl).
(§2) Liposomes were serial diluted in floatation buffer (100 mM NaCl, 2 mM EDTA, pH 5.5) to a final concentration of 0.1 mg/ml. Nine hundred microliters of liposome solution was placed in clear ultracentrifuge tubes and mixed with 100 μl of 0.01 μg/ml of protein. The liposome/protein solution was incubated at room temperature for 1 h with occasional shaking. An initial 100 μl of liposome/protein solution (liposomes) was removed and the remaining 900 μl was centrifuged at 50,000g for 20 min at 4 °C. The pellet was resuspended in 800 μl of fresh floatation buffer, centrifuged as above, and 800 μl of supernatant was removed (wash 1). This was repeated a second time and again 800 μl of supernatant was removed (wash 2). The final pellet was resuspended in 100 μl of floatation buffer plus SDS treatment buffer (pellet). Thirty microliters of each fraction was run on a 15% SDS-PAGE gel and probed with an anti-GST monoclonal antibody at a 1:1500 dilution.

GST-Annexin A2 = GST-Annexin A2 (Homo sapiens, UniProt P07355); experiment: Protein-lipid liposome binding assay (positive control protein); settings: protein detected in final pellet
Protocol: as §1, §2

6XHIS-N98 C58/61A = target: T2, 6XHIS-N98 C58/61A (Homo sapiens, UniProt Q9H2C2, C58A/C61A); experiment: HTRF phospholipid lipid-binding assay, mutant; set-up: key: NC, no change; settings: biotinylated lipid; NC = no change vs N98
T2 construct: made in house; host or cells: E. coli BL21
T2 sequence (Q9H2C2 1-98 C58A/C61A): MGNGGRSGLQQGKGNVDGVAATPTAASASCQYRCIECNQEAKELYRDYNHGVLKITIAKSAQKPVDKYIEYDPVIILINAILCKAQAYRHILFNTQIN
Excerpt: (§3) An HTRF assay was developed for 6XHIS-ARV1-N98-lipid binding. HTRF measures analyte interactions through fluorescence resonance energy transfer technology and time-resolved measurements ([53]). The interaction between two molecules can be quantified through binding each individual molecule involved with a fluorescent label and then analyzing the transfer of energy between the initial donor fluorophore and the secondary acceptor fluorophore. Following excitation of the first fluorophore, transfer of energy can only occur if the molecules bound with the fluorescent tags are within proximity to each other.
(§4) Assays were plated in 384-well flat bottom microplates (Greiner Bio, catalog #784075-25). Proteins were diluted using binding buffer (20 mM Hepes buffer, pH 7.2, containing 0.1% BSA, and 0.01% Tween20) to a stock concentration of 0.75 μM, and biotinylated phospholipids were dispensed, dried under nitrogen gas, and resuspended in binding buffer to a stock concentration of 50 μM. The lipid stock solution was diluted by 1:2 for a series of 12 serial dilutions. For the assay, in sequential order, 6 μl of binding buffer was loaded into the plate in triplicate for each dilution of phospholipid. To this, 2 μl of 0.75 μM 6XHIS-ARV1-N98 was added, followed by 2 μl of biotinylated phospholipid. Immediately following each addition loaded into the plate, the plate was centrifuged for 1 min at 1000 rpm to bring the contents to the bottom of the well. Next, detection antibodies were mixed with detection buffer (20 mM Hepes buffer, pH 8.5, containing 0.01% BSA and 200 mM KF). Antibodies were a MAb anti-6XHIS Europium kryptate-conjugated D1 fluorescent antibody (Cisbio, #61HISKLA) and Streptavidin-conjugated d2 fluorescent antibody (Cisbio, #610SADLA). For each 1000 μl of detection buffer, 5 μl of each antibody was added just prior to loading 10 μl into each well. The plate was again centrifuged for 1 min at 1000 rpm and stored in a sealed container overnight, in the dark. Plates were read on a PerkinElmer EnVision Xcite Multilabel plate reader.
(§5) Curves were logarithmically transformed and normalized to a common scale before being fit with a nonlinear regression of the agonist against the normalized response. This generated half maximal effective concentration values (EC50; M) that could then be compared between different lipids. In the context of our study, EC50 values were defined as a measure of protein sensitivity to binding to a particular lipid within a dose response curve. For phospholipid competition analysis, IC50; M values were determined using nonlinear regression of the inhibitor against normalized response.

6XHIS-N98 K54/K59A = target: T3, 6XHIS-N98 K54/K59A (Homo sapiens, UniProt Q9H2C2, K54A/K59A); experiment: HTRF phospholipid lipid-binding assay, mutant; set-up: key: NC, no change; settings: biotinylated lipid; NC = no change vs N98
T3 construct: made in house; host or cells: E. coli BL21
T3 sequence (Q9H2C2 1-98 K54A/K59A): T2 sequence (Q9H2C2 1-98 C58A/C61A) with K54A, A58C, K59A, A61C
Excerpt: as §3, §4, §5

6XHIS-N98 N94A = target: T4, 6XHIS-N98 N94A (Homo sapiens, UniProt Q9H2C2, N94A); experiment: HTRF phospholipid lipid-binding assay, mutant; set-up: key: NC, no change; settings: biotinylated lipid; NC = no change vs N98
T4 construct: made in house; host or cells: E. coli BL21
T4 sequence (Q9H2C2 1-98 N94A): T2 sequence (Q9H2C2 1-98 C58A/C61A) with A58C, A61C, N94A
Excerpt: as §3, §4, §5

6XHIS-N98 E70A = target: T5, 6XHIS-N98 E70A (Homo sapiens, UniProt Q9H2C2, E70A); experiment: HTRF phospholipid lipid-binding assay, mutant; set-up: key to Bio-PL, EC50, M ± S.D.: NC, no change; settings: biotinylated lipid, NC = no change vs N98
T5 construct: made in house; host or cells: E. coli BL21
T5 sequence (Q9H2C2 1-98 E70A): T2 sequence (Q9H2C2 1-98 C58A/C61A) with A58C, A61C, E70A
Excerpt: as §3, §4, §5

Chain of GST-Annexin A2 (P07355 whole entry): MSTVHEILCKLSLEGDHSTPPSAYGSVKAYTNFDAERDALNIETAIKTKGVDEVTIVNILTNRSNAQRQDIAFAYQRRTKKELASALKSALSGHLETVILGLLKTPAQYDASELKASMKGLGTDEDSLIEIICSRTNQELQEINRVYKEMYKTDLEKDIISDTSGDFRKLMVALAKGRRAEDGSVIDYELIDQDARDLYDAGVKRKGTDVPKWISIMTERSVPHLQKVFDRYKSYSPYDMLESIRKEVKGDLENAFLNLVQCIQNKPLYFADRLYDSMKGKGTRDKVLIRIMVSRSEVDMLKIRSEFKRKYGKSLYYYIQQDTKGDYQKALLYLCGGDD

| binding to PC:PL liposomes [1] | binding to PC:PL liposomes (GST-Annexin A2) | Bio-PL, EC50, M ± S.D. (6XHIS-N98 C58/61A) | Bio-PL, EC50, M ± S.D. (6XHIS-N98 K54/K59A) | Bio-PL, EC50, M ± S.D. (6XHIS-N98 N94A) | EC50 (6XHIS-N98 E70A; read-out: Bio-PL, EC50, M ± S.D.) [nM] | Compound | Bio-PL, EC50, M ± S.D. (6XHIS-N98 E70A) |
| --- | --- | --- | --- | --- | --- | --- | --- |
| Neither | Neither | NC | NC | NC | 190 | phosphatidylethanolamine [PE] | – |
| very weakly | very weakly | NC | NC | NC | – | phosphatidylcholine [PC] | NC |
| bound | bound | reduced binding | reduced binding | reduced binding | – | CCCCCCCCCCCCCCCC(=O)OC[C@H](COP(=O)(O)O)OC(=O)CCCCCCCCCCCCCCC [PA, phosphatidic acid] | reduced binding |
| bound | bound | NC | NC | NC | – | CCCCC/C=C\C/C=C\CCCCCCCC(=O)OC[C@H](COP(=O)(O)OCC(O)COP(=O)(O)OC[C@@H](COC(=O)CCCCCCC/C=C\C/C=C\CCCCC)OC(=O)CCCCCCC/C=C\C/C=C\CCCCC)OC(=O)CCCCCCC/C=C\C/C=C\CCCCC (stereo partly drawn) [CL, cardiolipin] | NC |

| Compound | binding to PC:PL liposomes [1] | binding to PC:PL liposomes (GST-Annexin A2) | Bio-PL, EC50, M ± S.D. (6XHIS-N98 C58/61A) | Bio-PL, EC50, M ± S.D. (6XHIS-N98 K54/K59A) | Bio-PL, EC50, M ± S.D. (6XHIS-N98 N94A) | EC50 (6XHIS-N98 E70A; read-out: Bio-PL, EC50, M ± S.D.) [nM] | Bio-PL, EC50, M ± S.D. (6XHIS-N98 E70A) |
| --- | --- | --- | --- | --- | --- | --- | --- |
| CCCCCCCC/C=C\CCCCCCCC(=O)OC[C@H](COP(=O)(O)OCC(O)CO)OC(=O)CCCCCCC/C=C\CCCCCCCC (stereo partly drawn) [PG, phosphatidylglycerol] | bound | bound | NC | reduced | reduced | – | NC |
| CCCCCC(=O)O[C@H](COC(=O)CCCCCNC(=O)CCCC[C@@H]1SC[C@@H]2NC(=O)N[C@@H]21)COP(=O)(O)O[C@H]1[C@H](O)[C@@H](O)[C@H](OP(=O)(O)O)[C@@H](O)[C@H]1O [reference compound] | – | – | weakened | – | weakened; also recorded: reduction | – | weakened |
| CCCCCCCCCCCCCCCCCC(=O)OC[C@H](COP(=O)(O)OC[C@H](N)C(=O)O)OC(=O)CCCCCCCCCCCCCCCCC [PS, phosphatidylserine] | bound | bound | NC | NC | NC | – | NC |
